Legend:
[1] = Distribution coefficient (log D at pH 7.4); assay type: physicochemical
Method: (§1) The ADME (absorption, distribution, metabolism, and excretion) profile of our lead compound 6 was determined by standard protocols carried out by WuXi AppTec (Shanghai) Co (https://www.wuxiapptec.com/). The following tests were conducted: distribution coefficient (log D at pH 7.4), aqueous solubility (Kinetic), metabolic stability in human liver microsomes and cryopreserved human hepatocytes, bidirectional permeability in Caco-2 cells, serum protein binding, and cytochrome P450 (CYP) inhibition (CYP1A2, CYP2C9, CYP2C19, CYP2D6, and CYP3A4-M).

CYP3A4-M = CYP3A4-M (Homo sapiens, UniProt P08684); assay: Cytochrome P450 inhibition, CYP3A4-M; assay type: in vitro ADME
Sequence of CYP3A4-M (P08684 whole entry): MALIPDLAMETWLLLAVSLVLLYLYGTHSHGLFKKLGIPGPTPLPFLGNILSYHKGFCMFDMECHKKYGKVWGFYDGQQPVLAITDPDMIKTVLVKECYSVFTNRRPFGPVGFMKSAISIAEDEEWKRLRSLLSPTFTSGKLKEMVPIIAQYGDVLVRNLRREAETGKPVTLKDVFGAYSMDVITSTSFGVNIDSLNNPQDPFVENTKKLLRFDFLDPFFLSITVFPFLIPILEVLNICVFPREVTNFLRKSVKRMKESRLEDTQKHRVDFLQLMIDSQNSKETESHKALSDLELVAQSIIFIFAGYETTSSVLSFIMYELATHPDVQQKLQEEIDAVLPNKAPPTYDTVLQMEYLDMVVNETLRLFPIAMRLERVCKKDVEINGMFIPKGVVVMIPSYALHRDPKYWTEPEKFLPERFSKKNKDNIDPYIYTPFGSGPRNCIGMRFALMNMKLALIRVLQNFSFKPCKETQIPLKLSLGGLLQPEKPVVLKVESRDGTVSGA
Method: as §1

[2] = Bidirectional permeability in Caco-2 cells; assay type: in vitro ADME; details: human
Method: as §1

CYP1A2 = biological target: T1, CYP1A2 (Homo sapiens, UniProt P05177); assay: Cytochrome P450 inhibition, CYP1A2; assay type: in vitro ADME
T1 sequence (P05177 1-516): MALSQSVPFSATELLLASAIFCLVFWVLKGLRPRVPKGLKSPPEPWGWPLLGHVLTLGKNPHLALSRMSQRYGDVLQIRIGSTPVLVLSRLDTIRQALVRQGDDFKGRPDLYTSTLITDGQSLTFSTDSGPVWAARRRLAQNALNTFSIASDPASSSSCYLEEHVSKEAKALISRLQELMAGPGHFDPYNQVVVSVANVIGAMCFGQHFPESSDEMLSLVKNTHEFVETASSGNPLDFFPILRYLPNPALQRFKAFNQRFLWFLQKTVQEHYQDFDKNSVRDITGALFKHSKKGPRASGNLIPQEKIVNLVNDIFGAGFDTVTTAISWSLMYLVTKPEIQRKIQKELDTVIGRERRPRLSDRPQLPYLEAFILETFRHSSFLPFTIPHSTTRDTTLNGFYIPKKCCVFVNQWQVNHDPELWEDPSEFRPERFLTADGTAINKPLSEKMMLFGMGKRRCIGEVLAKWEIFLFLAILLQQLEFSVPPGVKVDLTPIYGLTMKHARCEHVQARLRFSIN
Method: as §1

HCT-116 cells [3] = assay: Clonogenic survival assay, cyclophosphamide treatment; assay type: cell-based, human
Method: […] The medium was then replaced with drug and inhibitor-free fresh medium. After incubation for another 9 days to allow for colony formation, the plates were stained with crystal violet, colonies were counted, and plating efficiency and surviving fraction were calculated. Data were plotted using GraphPad Prism version 5.04. software.

HCT-116 cells [4] = assay: Clonogenic survival assay, ionizing radiation; assay type: cell-based, human; details: 0.5 and 1 μM, 0 to 8 Gy γ-radiation
Method: The effectiveness of compound 6 for sensitization of cells to ionizing radiation was also assessed using the clonogenic survival assay. Briefly, 200-3000 of HCT-116 cells (depending on the radiation dose) were seeded and after 24 hours the cells were pretreated with 0.5 or 1 µM of compound 6 in DMSO for 4 hours followed by exposure to increasing doses of γ-radiation (^60Co Gammacell; Atomic Energy of Canada Limited, Ottawa) from 0 to 8 Gy (at a dose rate of 0.8 Gy/min) and kept for an additional 24 hours in inhibitor-containing medium. The medium was then replaced with fresh medium without the compound, and the plates were incubated at 37°C for 9 more days before staining and determining the number of colonies. Data were plotted using GraphPad Prism version 5.04 software.

[5] = Metabolic stability in human liver microsomes; assay type: in vitro ADME
Method: as §1

HCT-116 cells [6] = assay: Cytotoxicity assay using colony forming assay; assay type: cell-based, human; details: 0.5 μM
Method: HCT-116 cells were incubated with media containing a non-toxic concentration of 6 or 10 ( Supplementary Figure 3 ) prior to exposure to the DNA damaging agents. […]
nitrocellulose. Proteins were visualized using ERCC1 (A73368-100, 1:1000; EpiGentek), XPF (LS- […]
primary antibodies followed by secondary anti-mouse or anti-rabbit secondary HRP-conjugated secondary antibodies. ECL chemiluminescent substrate (Promega) was used to detect the proteins.
Supplementary Figure 3. Cytotoxicity assay using colony forming assay
4 HCT-116 Derived XPF Knockout Cells
For CRISPR deletion of XPF from HCT-116 cells, the pSpCas9(BB)-2A-GFP (pX458) vector (Addgene plasmid # 48138) was used. The short guide sequence to target XPF exon one was: 5'- […]
- 3' and target XPF exon eight was: 5'-
-3'. All short guide sequences oligonucleotides were synthesized, annealed and cloned into pX458 vector and were confirmed by DNA sequencing at DNA laboratory, University of Calgary. The DNA plasmid (pX458 containing XPF short guide RNA sequence, 5 µg) was transfected into HCT-116 cells using Lipofectamine 2000 (Invitrogen) according to the manufacturer’s instructions. Forty-eight hours after transfection, cells were harvested and genomic DNA was isolated using the KAPA Express Extract Kit (Kapa Biosystems) according to the manufacturer’s instructions. […]

HCT-116 cells [7] = assay: Clonogenic survival assay, UV treatment; assay type: cell-based, human
Method: HCT-116 cells (100–800 cells depending on the UV dose) were plated in triplicate in 60-mm Petri dishes in DMEM/F12 medium. Following overnight attachment of the cells in a humidified atmosphere containing 5% CO2 at 37°C, the cells were treated with 0.5 μM compound 6 or 10 in DMSO (as described in section 2.7) for 4 h before the medium was removed, and the cells exposed to increasing doses (0–10 J/m^2) of UV-C radiation. The cells were then cultured for a further 24 h in the presence of inhibitor and then for an additional 9 days in the absence of inhibitor to allow for colony formation. Colonies were stained with crystal violet and counted using a Colcount instrument (Oxford Optronix, Abingdon UK) to facilitate determination of plating efficiency and surviving fraction. Data were plotted using GraphPad Prism version 5.04 software.

Q: For `COc1ccc2nc3cc(Cl)ccc3c(Nc3ccc(O)c(CN4CCN(CCN(C(C)C)C(C)C)CC4)c3)c2c1` [Compound 6], which logD [1] is on record?
A: 3.95

Q: What about the “CYP3A4-M inhibition grade (in words)” value (CYP3A4-M) of the same compound?
A: moderate inhibitor

Q: And the IC50 (CYP3A4-M)?
A: 1.9 µM

Q: And the efflux ratio [2]?
A: 27.5

Q: What about the “CYP1A2 inhibition grade (in words)” value (CYP1A2) of the same compound?
A: moderate inhibitor

Q: What about the IC50 (CYP1A2) of the same compound?
A: 6.51 µM

Q: What about the “sensitization to cyclophosphamide (in words)” value (HCT-116 cells [3]; 0.5 μM 6, 10 at 1.0 μM or 0.5 μM) of the same compound?
A: sensitized the cells to cyclophosphamide

Q: And the “cell survival with cyclophosphamide” value (HCT-116 cells [3]; 0.5 μM compound, 50 μM cyclophosphamide)?
A: 62%

Q: And the “cell survival at 250 μM cyclophosphamide (in words)” value (HCT-116 cells [3]; 0.5 μM compound, 250 μM cyclophosphamide)?
A: almost no cells surviving

Q: What about the “sensitization to ionizing radiation (in words)” value (HCT-116 cells [4]) of the same compound?
A: sensitized HCT-116 cells in a dose-dependent manner

Q: What about the “metabolic stability grade, liver microsome assay (in words)” value [5] of the same compound?
A: low to moderate metabolic stability

Q: What about the CLint scaled ([5]; human, liver microsomes, read-out: Metabolic stability in human liver microsomes (clearance)) of the same compound?
A: 22.6 L/h/kg

Q: What about the “toxicity of the concentration used (in words)” value (HCT-116 cells [6]) of the same compound?
A: non-toxic

Q: What about the “sensitization to UVC radiation (in words)” value (HCT-116 cells [7]; 0.5 μM) of the same compound?
A: sensitized cells to UVC radiation

Q: What about the “cell survival after UVC” value (HCT-116 cells [7]; 0.5 μM compound, 4 J/m^2 UVC) of the same compound?
A: < 50%
